Test results from patent publication US9006174B2 (priority 2009, dated 2015).
Ends that are not written are not given here.

Legend:
[1] = system: hRBCs; conditions: human erythrocytes, 1 h at 37° C.
[2] = system: cRBCs; test: Haemolytic activity, chicken erythrocytes; assay type: cell-based; conditions: 1 h at 37° C.

| Substance | Toxicity Haemolysis (hRBCs) [1] | Toxicity Haemolysis (cRBCs) [2] |
| --- | --- | --- |
| RFLRKIRRFRPK [CMAP(4-15), RFLRKIRRFRPK] | +/− (>25% dead cells) |  |
| RFGRFLRKIRRFR [CMAP(1-13), RFGRFLRKIRRFR] | −− (<5% dead cells) |  |
| RFGRFLRKIRRF [CMAP(1-12), RFGRFLRKIRRF] | −− (<5% dead cells) |  |
| RLGRLLRKIRRLRPK [CMAP(1-15) (3xF→L), RLGRLLRKIRRLRPK] | − (<25% dead cells) |  |
| RLGRFLRKIRRFRPK [CMAP(1-15) (F2→L), RLGRFLRKIRRFRPK] | − (<25% dead cells) |  |
| RFGRFLRKIRRFRPKVTITIQGSARF [CMAP26] | ++ (>75% dead cells) |  |
| RFGRLLRKIRRFRPK [CMAP(1-15) (F5→L), RFGRLLRKIRRFRPK] | − (<25% dead cells) |  |
| RFGRWLRKIRRFRPK [CMAP(1-15) (F5→W), RFGRWLRKIRRFRPK] | −− (<5% dead cells) |  |
| RFGRFLRKIRRFRPKVTITIQGSARFG [CMAP27, reference compound] | − (<25% dead cells) |  |
| RFGRFLRKIRRFRPKVTITIQGSARF-NH2 [CMAP26-NH2, reference compound] |  | +/− (>25% dead cells) |
| RFGRFLRKIRRFRPK [CMAP(1-15), RFGRFLRKIRRFRPK] | −− (<5% dead cells) | − (<25% dead cells) |
| RFGRFLRKIRR [CMAP(l-ll), RFGRFLRKIRR] | +/− (>25% dead cells) |  |
| FLRKIRRFRPK [CMAP(5-15), FLRKIRRFRPK] | − (<25% dead cells) |  |
| RFGRFLRKIRRFRPKVTITIQ [CMAP1-21] |  | − (<25% dead cells) |
| GRFLRKIRRFRPK [CMAP(3-15), GRFLRKIRRFRPK] | −− (<5% dead cells) |  |
| RWGRWLRKIRRWRPK [CMAP(1-15) (3xF→W), RWGRWLRKIRRWRPK] | − (<25% dead cells) |  |
| RFGRFLRKIR [CMAP(l-l0), RFGRFLRKIR] | −− (<5% dead cells) |  |
| RWGRFLRKIRRFRPK [CMAP(1-15) (F2→W), RWGRFLRKIRRFRPK] | −− (<5% dead cells) |  |
| FGRFLRKIRRFRPK [CMAP(2-15), FGRFLRKIRRFRPK] | −− (<5% dead cells) |  |
